# Laboratory results from paper PMC3580017 (Journal of natural products, 2013).
# System: HT-29 human colon cancer cells
# Test: Cytotoxicity against HT-29 human colon cancer cells
# Assay type: cell-based
# Conditions: HT-29 versus CCD-112CoN
smiles,measurement,value
"CCCC/C=C/C=C/C=C/[C@@H]1CC[C@@H](O)[C@H](C)N1C [Compound 1, (2S,3R,6S)-6-((1E,3E,5E)-deca-1,3,5-trien-1-yl)-1,2-dimethylpiperidin-3-ol]",selectivity ratio for cancerous colon cells versus normal colon cells,approximately 4
